Experimental data published in patent US10150763B2, “Histone deacetylase inhibitors and their use in therapy” (Karus Therapeutics Limited, priority 2012, dated 2018).
Like-named read-outs stand apart in the source and are kept apart here.

Experiments:
[1] = Comparative mouse pharmacokinetics (oral bioavailability); details: in vivo, read-out: Oral bioavailability, F %
[2] = system: A549; assay: In vitro cancer cell growth inhibition, A549; assay type: cell-based; details: Homo sapiens
Description: (§1) In Vitro Cancer Cell Growth Inhibition Data for Compound A

[3] = system: PC-3; assay: In vitro cancer cell growth inhibition, PC-3; assay type: cell-based; details: Homo sapiens; PC-3 cancer cell growth inhibition
Description: as §1

[4] = molecular target: HDAC6 (Homo sapiens (Human), UniProt Q9UBN7); assay: HDAC inhibitory activity assay (as described in WO2008/062201), HDAC6; assay type: biochemical
[5] = molecular target: HDAC1 (Homo sapiens (Human), UniProt Q13547); assay: HDAC inhibitory activity assay (as described in WO2008/062201), HDAC1; assay type: biochemical
[6] = class symbol, read-out: IC50, HDAC1
[7] = class symbol, read-out: IC50, HDAC6

Chain of HDAC6 (Q9UBN7 whole entry, species assumed): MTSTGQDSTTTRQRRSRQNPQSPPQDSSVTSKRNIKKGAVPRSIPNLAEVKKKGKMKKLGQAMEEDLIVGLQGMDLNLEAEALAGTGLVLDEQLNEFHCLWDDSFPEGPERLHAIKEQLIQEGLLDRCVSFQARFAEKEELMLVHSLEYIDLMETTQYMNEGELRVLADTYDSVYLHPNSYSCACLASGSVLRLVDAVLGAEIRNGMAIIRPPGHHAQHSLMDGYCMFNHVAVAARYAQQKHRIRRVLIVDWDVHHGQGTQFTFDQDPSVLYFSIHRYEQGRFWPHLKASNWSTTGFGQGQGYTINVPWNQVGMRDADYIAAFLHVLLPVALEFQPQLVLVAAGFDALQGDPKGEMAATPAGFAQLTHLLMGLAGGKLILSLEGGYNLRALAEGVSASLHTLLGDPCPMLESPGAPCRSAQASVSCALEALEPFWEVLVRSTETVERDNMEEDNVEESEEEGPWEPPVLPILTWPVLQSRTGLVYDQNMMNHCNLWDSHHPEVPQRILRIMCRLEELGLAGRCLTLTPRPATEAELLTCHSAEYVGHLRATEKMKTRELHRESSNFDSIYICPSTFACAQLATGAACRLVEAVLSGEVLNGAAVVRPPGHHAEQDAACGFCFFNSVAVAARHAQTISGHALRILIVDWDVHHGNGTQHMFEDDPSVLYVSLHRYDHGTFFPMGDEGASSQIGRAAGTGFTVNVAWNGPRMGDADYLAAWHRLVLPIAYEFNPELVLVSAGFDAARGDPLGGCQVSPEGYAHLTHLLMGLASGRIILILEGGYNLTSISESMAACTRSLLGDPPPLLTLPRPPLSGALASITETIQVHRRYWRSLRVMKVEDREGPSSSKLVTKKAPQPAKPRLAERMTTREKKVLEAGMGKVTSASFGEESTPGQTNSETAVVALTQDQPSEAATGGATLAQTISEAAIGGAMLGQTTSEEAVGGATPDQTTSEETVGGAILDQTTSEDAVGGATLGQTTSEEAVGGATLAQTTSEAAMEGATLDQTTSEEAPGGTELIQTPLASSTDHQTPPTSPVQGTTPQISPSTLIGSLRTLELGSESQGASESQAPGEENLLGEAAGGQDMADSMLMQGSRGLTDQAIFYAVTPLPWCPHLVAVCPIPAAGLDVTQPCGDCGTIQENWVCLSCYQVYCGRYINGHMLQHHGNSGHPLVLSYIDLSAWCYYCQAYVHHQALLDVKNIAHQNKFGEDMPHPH
Chain of HDAC1 (Q13547 whole entry, species assumed): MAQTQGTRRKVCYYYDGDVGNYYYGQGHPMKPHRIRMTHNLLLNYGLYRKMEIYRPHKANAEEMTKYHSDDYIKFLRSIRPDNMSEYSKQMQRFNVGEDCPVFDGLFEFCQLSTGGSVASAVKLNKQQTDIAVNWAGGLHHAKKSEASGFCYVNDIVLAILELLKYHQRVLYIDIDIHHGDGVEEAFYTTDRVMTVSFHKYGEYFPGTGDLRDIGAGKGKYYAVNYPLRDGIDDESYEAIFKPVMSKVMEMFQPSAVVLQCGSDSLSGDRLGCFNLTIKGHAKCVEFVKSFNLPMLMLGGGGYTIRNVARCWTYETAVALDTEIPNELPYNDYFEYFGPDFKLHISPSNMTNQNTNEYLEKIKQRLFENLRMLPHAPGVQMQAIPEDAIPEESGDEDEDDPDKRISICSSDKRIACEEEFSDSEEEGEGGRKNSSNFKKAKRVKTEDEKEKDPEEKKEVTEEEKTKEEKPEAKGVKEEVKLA

IC50 [5, 6] | IC50 [4, 7] | Structure (SMILES) | other results
– | – | Cc1nsc(N(CCCCCCC(=O)NO)c2ccccn2)n1 [Example A, N-Hydroxy-7-[(3-methyl-1,2,4-thiadiazol-5-yl)(pyridin-2-yl)amino]heptanamide] | bioavailability [1]: 19%; IC50 [2]: 1.89 µM; IC50 [3]: 2.32 µM; IC50 [4]: < 0.5 µM; IC50 ([4]; numeric value, read-out: IC50, HDAC6): 0.00176 µM; IC50 [5]: < 0.5 µM; IC50 ([5]; numeric value, read-out: IC50, HDAC1): 0.227 µM
1 to 10 µM | – | O=C(CCCCCCN(c1ccccn1)c1nc(C(F)(F)F)ns1)NO [Example AA] | –
< 0.5 µM | < 0.5 µM | Cc1nsc(N(CCCCCCC(=O)NO)c2cccnc2)n1 [Example B, N-Hydroxy-7-[(3-methyl-1,2,4-thiadiazol-5-yl)(pyridin-3-yl)amino]heptanamide] | –
0.5 to 1 µM | < 0.5 µM | Cc1nsc(N(CCCCCCC(=O)NO)c2ccc(F)cn2)n1 [Example CC, 7-((5-Fluoropyridin-2-yl)(3-methyl-1,2,4-thiadiazol-5-yl)amino)-N-hydroxyheptanamide] | –
1 to 10 µM | – | Cc1noc(N(CCCCCCCC(=O)NO)c2ccccn2)n1 [Example D, N-Hydroxy-8-((3-methyl-1,2,4-oxadiazol-5-yl)(pyridin-2-yl)amino)octanamide] | –
1 to 10 µM | < 0.5 µM | Cc1nsc(N(CCCCCCCC(=O)NO)c2ccc(F)cn2)n1 [Example DD, 8-((5-Fluoropyridin-2-yl)(3-methyl-1,2,4-thiadiazol-5-yl)amino)-N-hydroxyoctanamide] | –
1 to 10 µM | < 0.5 µM | Cc1nsc(N(CCCCCCC(=O)NO)c2cc(-c3ccc(F)cc3)ccn2)n1 [Example EE, 7-((4-(4-Fluorophenyl)pyridin-2-yl)(3-methyl-1,2,4-thiadiazol-5-yl)amino)-N-hydroxyheptanamide] | –
1 to 10 µM | < 0.5 µM | Cc1nsc(N(CCCCCCCC(=O)NO)c2cc(-c3ccc(F)cc3)ccn2)n1 [Example FF, 8-((4-(4-Fluorophenyl)-pyridin-2-yl)(3-methyl-1,2,4-thiadiazol-5-yl)amino)-N-hydroxyoctanamide] | –
1 to 10 µM | – | O=C(CCCCCCCN(c1ccccn1)c1nncs1)NO [Example H, N-Hydroxy-8-(pyridin-2-yl(1,3,4-thiadiazol-2-yl)amino)octanamide] | –
0.5 to 1 µM | – | Cc1nnc(N(CCCCCCC(=O)NO)c2ccccn2)s1 [Example I, N-Hydroxy-7-((5-methyl-1,3,4-thiadiazol-2-yl)(pyridin-2-yl)amino)heptanamide] | –
1 to 10 µM | – | Cc1nnc(N(CCCCCCCC(=O)NO)c2ccccn2)s1 [Example J, N-Hydroxy-8-((5-methyl-1,3,4-thiadiazol-2-yl)(pyridin-2-yl)amino)octanamide] | –
1 to 10 µM | – | O=C(CCCCCCN(c1ccccn1)c1nccs1)NO [Example KK, N-Hydroxy-7-(pyridin-2-yl(thiazol-2-yl)amino)heptanamide] | –
1 to 10 µM | – | O=C(CCCCCCCN(c1ccccn1)c1nccs1)NO [Example LL, N-Hydroxy-8-(pyridin-2-yl(thiazol-2-yl)amino)octanamide] | –
1 to 10 µM | – | Cn1c(N(CCCCCCC(=O)NO)c2ccccn2)nc2ccccc21 [Example M, N-Hydroxy-7-((1-methyl-1H-benzo[d]imidazol-2-yl)(pyridin-2-yl)amino)heptanamide] | –
0.5 to 1 µM | – | O=C(CCCCCCN(c1ccccn1)c1ncns1)NO [Example O, N-Hydroxy-7-(pyridin-2-yl(1,2,4-thiadiazol-5-yl)amino)heptanamide] | –
1 to 10 µM | – | O=C(CCCCCCCN(c1ccccn1)c1ncns1)NO [Example P, N-Hydroxy-8-(pyridin-2-yl(1,2,4-thiadiazol-5-yl)amino)octanamide] | –
0.5 to 1 µM | < 0.5 µM | Cn1c(N(CCCCCCC(=O)NO)c2ccc(F)cn2)nc2ccccc21 [Example S, 7-((5-Fluoropyridin-2-yl)(1-methyl-1H-benzo[d]imidazol-2-yl)amino)-N-hydroxyheptanamide] | –
1 to 10 µM | < 0.5 µM | Cn1c(N(CCCCCCCC(=O)NO)c2ccc(F)cn2)nc2ccccc21 [Example T, 8-((5-Fluoropyridin-2-yl)(1-methyl-1H-benzo[d]imidazol-2-yl)amino)-N-hydroxyoctanamide] | –
1 to 10 µM | < 0.5 µM | Cn1ccc(N(CCCCCCC(=O)NO)c2ccc(F)cn2)n1 [Example U, 7-((5-Fluoropyridin-2-yl)(1-methyl-1H-pyrazol-3-yl)amino)-N-hydroxyheptanamide] | –
> 10 µM | < 0.5 µM | Cn1ccc(N(CCCCCCCC(=O)NO)c2ccc(F)cn2)n1 [Example V, 8-((5-Fluoropyridin-2-yl)(1-methyl-1H-pyrazol-3-yl)amino)-N-hydroxyoctanamide] | –
1 to 10 µM | < 0.5 µM | O=C(CCCCCCN(c1ccc(F)cn1)c1nc2ccccc2o1)NO [Example W, 7-(Benzo[d]oxazol-2-yl(5-fluoropyridin-2-yl)amino)-N-hydroxyheptanamide] | –
1 to 10 µM | < 0.5 µM | O=C(CCCCCCCN(c1ccc(F)cn1)c1nc2ccccc2o1)NO [Example X, 8-(Benzo[d]oxazol-2-yl(5-fluoropyridin-2-yl)amino)-N-hydroxyoctanamide] | –
< 0.5 µM | < 0.5 µM | Cn1ccc(N(CCCCCCC(=O)NO)c2cc(-c3ccc(F)cc3)ccn2)n1 [Example Y, 7-((4-(4-Fluorophenyl)pyridin-2-yl)(1-methyl-1H-pyrazol-3-yl)amino)-N-hydroxyheptanamide] | –
> 10 µM | < 0.5 µM | Cn1ccc(N(CCCCCCCC(=O)NO)c2cc(-c3ccc(F)cc3)ccn2)n1 [Example Z, 8-((4-(4-Fluorophenyl)pyridin-2-yl)(1-methyl-1H-pyrazol-3-yl)amino)-N-hydroxyoctanamide] | –

Structure (SMILES) | IC50 [5, 6] | IC50 [4, 7] | other results
O=C(CCCCCCN(c1ccc(F)cn1)c1nc(C(F)(F)F)ns1)NO [Example GG, 7-((5-Fluoropyridin-2-yl)(3-(trifluoromethyl)1,2,4-thiadiazol-5-yl)amino)-N-hydroxyheptanamide] | 0.5 to 1 µM | < 0.5 µM | –
O=C(CCCCCCCN(c1ccc(F)cn1)c1nc(C(F)(F)F)ns1)NO [Example HH, 8-((5-Fluoropyridin-2-yl)(3-(trifluoromethyl)1,2,4-thiadiazol-5-yl)amino)-N-hydroxyoctanamide] | 1 to 10 µM | < 0.5 µM | –
Cc1noc(N(CCCCCCC(=O)NO)c2ccc(F)cn2)n1 [Example Q, 7-((5-Fluoropyridin-2-yl)(3-methyl-1,2,4-oxadiazol-5-yl)amino)-N-hydroxyheptanamide] | > 10 µM | < 0.5 µM | –
Cc1noc(N(CCCCCCCC(=O)NO)c2ccc(F)cn2)n1 [Example R, 8-((5-Fluoropyridin-2-yl)(3-methyl-1,2,4-oxadiazol-5-yl)amino)-N-hydroxyoctanamide] | 1 to 10 µM | < 0.5 µM | –
